# Source: patent publication US8653046B2, “Controlling transgene expression across the skin” (ETH Zurich, priority 2009, dated 2014)
# Legend:
# [1] = Stability (half-live) of phloretin in culture medium, quantified via CHO-PEACE8 SEAP calibration curve; assay type: physicochemical
# TtgA2 (TtgR-p65) = assay: PEACE: SEAP expression after transient co-transfection of pMG10 and pMG18 (PSV40-TtgA2-pA); assay type: cell-based, Pseudomonas putida DOT-T1E; conditions: 48 h
# Text: Three different transactivators are designed, harboring either the VP16 (TtgA1; pMG11, TtgR-VP16) (Triezenberg S. J. et al., loc. cit.), the p65 (TtgA2; pMG18, TtgR-p65) (Urlinger S., et al., 2000, Gene 247(1-2):103-110) or the human E2F4 (TtgA3; pMG19, TtgR-E2F4) (Akagi K., Kanai M., Saya H., Kozu T., Berns A., 2001, Nucleic Acids Res 29(4):e23) transactivation domains. pMG11, pMG18 or pMG19 are co-transfected with pMG10 (PTtgR1-SEAP-pA) into CHO-K1, HEK-293 as well as primary human fibroblasts and keratinocytes, and SEAP expression is profiled after 48 h of cultivation in the presence or absence of 50 μM phloretin. […] All transactivators mediate similar basal expression levels when phloretin is […] in the medium, but due to their cell-type specificity and graded maximum transcription-initiation capacities, the three transactivators offer a selection of defined expression windows.
# CHO-K1 = assay: Toxicity of flavonoids: CHO-K1 transiently transfected with pSEAP2-Control, SEAP levels after 48 h; conditions: 0, 25, 50 μM, genistein cytotoxic only at 50 μM
# Experimental: (A) Toxicity of flavonoids. CHO-K1 are transiently transfected with pSEAP2-Control, and cultivated in medium supplemented with different flavonoids (0, 25, 50 μM). SEAP levels are scored after 48 h.
# CHO-K1 are transiently (co-)transfected with either pMG10 (PTtgR1-SEAP-pA) and pMG11 (PSV40-TtgA1-pA), to score regulation performance, or with pSEAP2-Control (PSV40-SEAP-pA), to assess compound-related cytotoxicity, and then cultivated for 48 h in medium containing different concentrations (0, 25, 50 μM) of specific flavonoid type compounds (berberine, butylparaben, genistein, luteolin, β-naphthol, naringenin, phloretin, phloridzin or quercetin) before SEAP production is profiled (FIG. 5A).
# Wild-type Chinese hamster ovary cells (CHO-K1, ATCC: CCL-61) and their derivatives are cultivated in standard medium: ChoMaster® HTS (Cell Culture Technologies, Gravesano, Switzerland) supplemented with 5% (v/v) fetal calf serum (FCS, PAN Biotech GmbH, Aidenbach, Germany, Cat. No. 3302, Lot No. P251110) and 1% (v/v) penicillin/streptomycin solution (Sigma, St Louis, Mo., USA, Cat. No. P4458). Human embryonic kidney cells (HEK-293, Mitta B., et al., 2002, Nucleic Acids Res 30(21):e113), African green monkey kidney cells (COS-7, ATCC: CRL-1651), baby hamster kidney cells (BHK-21, ATCC: CCL10), human fibrosarcoma cells (HT-1080, ATCC: CCL-121), the human keratinocyte cell line HaCaT (Boukamp P., et al., 1988, J Cell Biol 106(3):761-771) and mouse fibroblasts (NIH/3T3, ATCC: CRL-1658) are cultured in Dulbecco's modified Eagle's medium (DMEM; Invitrogen, Cat. No. 52100-39) supplemented with 10% FCS (v/v) and 1% (v/v) penicillin/streptomycin solution. Primary human foreskin fibroblasts are cultivated in DMEM supplemented with 20% FCS (v/v) and 1% (v/v) penicillin/streptomycin solution and primary human foreskin keratinocytes are cultured in chemically defined serum-free keratinocyte medium (Invitrogen, Cat. No. 10744019). All cell types are cultivated at 37° C. in a 5% CO2-containing humidified atmosphere. For transient transfection of CHO-K1, 1 μg of total plasmid DNA (for co-transfection an equal amount of each plasmid) is transfected into 50,000 cells per well of a 24-well plate according to an optimized calcium phosphate protocol (Greber D., Fussenegger M., 2007, Biotechnol Bioeng 96(5):821-834). Plasmid DNA is diluted to a total volume of 25 μL 0.5 M CaCl2 solution, which is mixed with 25 μL 2×HBS solution (50 mM HEPES, 280 mM NaCl, 1.5 mM Na2HPO4, pH 7.1). After incubation for 15 min at room temperature, the precipitates are immediately added to the well and centrifuged onto the cells (5 min at 1,200×g) to increase transfection efficiency. After 3 h, the cells are treated with 0.5 mL glycerol solution (ChoMaster® HTS medium containing 15% glycerol) for 60 sec. After washing once with phosphate-buffered saline (PBS, Dulbecco's Phosphate-Buffered Saline; Invitrogen, Cat. No. 21600-0069), cells are cultivated in 0.5 mL standard ChoMaster® HTS medium in the presence or absence of different concentrations of phloretin. For transfection of BHK-21, COS-7 and HEK-293, plasmid DNA-Ca2PO4 precipitate is prepared and applied to the cells as described above. HEK-293 and COS-7 cells are washed once with PBS after 3 h incubation with the DNA-Ca2PO4 precipitate and subsequently cultivated in standard DMEM, while BHK-21 cells are incubated overnight with the precipitates and then cultivated in DMEM medium after being washed once with PBS. […]
# [2] = rodents, cited from earlier work
smiles,measurement,setting,value
"O=C(CCc1ccc(O)cc1)c1c(O)cc(O)cc1O [phloretin, 3-[4-hydroxyphenyl]-1-[2,4,6-trihydroxyphenyl]-1-propanone]",functional half-live,"[1]; cell-free culture medium, levels determined over 64 h",70 h
same,half-live,[1]; mammalian cell culture systems,70 h
same,SEAP Production,"TtgA2 (TtgR-p65); CHO-K1, phloretin 50 μM",0.8 ± 0.05 U/L
same,SEAP Production,"TtgA2 (TtgR-p65); HEK-293, phloretin 50 μM",1.9 ± 0.1 U/L
same,SEAP Production,"TtgA2 (TtgR-p65); HaCaT, phloretin 50 μM",0.5 ± 0.05 U/L
same,SEAP Production,"TtgA2 (TtgR-p65); human primary fibroblasts, phloretin 50 μM",0.2 ± 0.02 U/L
same,SEAP Production,"TtgA2 (TtgR-p65); human primary keratinocytes, phloretin 50 μM",0.3 ± 0.02 U/L
same,compound-related cytotoxicity / cell viability,CHO-K1,do not reduce cell viability
same,half-life in vivo,[2],rather short half-life in vivo
same,systemic distribution after dermal administration,[2]; dermal administration,systemically spread
